Common to all, as to format: cell-based, mouse
Series [1] relates to Foxp3. Kind of series: Foxp3 expression (MFI) in Treg cells by flow cytometry. The source says:
(§1) For large scale Treg culture, Tregs were first expanded in Rosa-Cas9/Foxp3^Thy1.1 mice by injecting IL-2:IL-2 antibody immune complex according protocol described in Webster et. al (J Exp Med 206, 751-760, 2009). Spleen and lymph node Treg cells were labeled with PE-conjugated Thy1.1 antibody and isolated by magnetic selection using anti-PE microbeads (Mitenyl #130-048-801). All isolated Treg cells were activated by plate bound anti-CD3 and anti-CD28 antibodies and cultured with X-VIVO® 20 media (LONZA #04-448Q) supplemented by 1× Pen/Strep, 1× Sodium pyruvate, 1× HEPES, 1× GlutaMax™, 55 μM beta-mercaptoethanol in the presence of IL-2 at 500 units/mL. For experiments with Brd9 degradation, Treg cells were treated at day 0 with 2.5 μM dBRD9 (Tocris #6606) and cultured for four days for RNA- and ChIP-seq and 0.16-10 μM treated at day 0 and cultured dBRD9 for four days for Foxp3 MFI, cell viability and cell proliferation assays. Live cells were enriched by Ficoll-Paque® 1.084 (GE Health 17-5446-02) for RNA-seq and ChIP-seq.
HEK293T cells were seeded in 6-wells plate at 0.5 million cells per 2 mL DMEM media supplemented by 10% FBS, 1% Pen/Strep, 1× GlutaMax®, 1× Sodium Pyruvate, 1× HEPES, and 55 μM beta-mercaptoethanol. […] Transduced cells were analyzed for Foxp3 and cytokine expression in eBioscience® Fix/Perm buffer (eBioscience #00-5523-00) using flow cytometry. […]
(In general: In flow cytometry, cells or beads pass a laser one at a time.)

Series [2] deals with Treg cells. The series is described as follows: Cell viability by Ghost Dye in Treg cells. As to conditions: dBRD9 in increasing concentrations for 4 days.
Source text: as §1

Series [3] concerns Treg cells. Kind of series: Cell division by CellTrace dilution in Treg cells. As to conditions: dBRD9 in increasing concentrations for 4 days.
Source text: as §1

Series [4] relates to Foxp3-bound sites. Kind of series: Foxp3 ChIP-seq in Treg cells.
Source text: as §1
(§2) Treg cells were collected and cross-linked first in 3 mM disuccinimidyl glutarate (DSG) in 1×PBS for thirty minutes then in 1% formaldehyde for another ten minutes, both at RT, for chromatin binding protein ChIP or in 1% formaldehyde only for histone modification ChIP. After quenching the excess cross-linker with a final concentration of 125 mM glycine, the cells were washed in 1× PBS, pelleted, flash-frozen in liquid nitrogen, and stored at −80° C. Cell pellets were thawed on ice and incubated in lysis solution (50 mM HEPES-KOH pH 8, 140 mM NaCl, 1 mM EDTA, 10% glycerol, 0.5% NP40, 0.25% Triton X-100) for ten minutes. The isolated nuclei were washed with wash solution (10 mM Tris-HCl pH 8, 1 mM EDTA, 0.5 mM EGTA, 200 mM NaCl) and shearing buffer (0.1% SDS, 1 mM EDTA, 10 mM Tris-HCl pH 8) then sheared in a Covaris® E229 sonicator for ten minutes to generate DNA fragments between ˜200-1000 base pairs (bp). After clarification of insoluble material by centrifugation, the chromatin was immunoprecipitated overnight at 4° C. with antibodies against Foxp3, Smarca4, Brd9, Phf10 or H3K27ac. The next day, the antibody bound DNA was incubated with Protein A+G Dynabeads™ (Invitrogen) in ChIP buffer (50 mM HEPES-KOH pH 7.5, 300 mM NaCl, 1 mM EDTA, 1% Triton X-100, 0.1% DOC, 0.1% SDS), washed and treated with Proteinase K and RNase A. Cross-linking was reversed by incubation at 55° C. for two and a half hours. Purified ChIP DNA was used for library generation (NuGen Ovation® Ultralow Library System V2) according to manufacturer's instructions for subsequent sequencing.
Single-end 50 bp or paired-end 42 bp reads were aligned to mouse genome mm10 using STAR alignment tool (V2.5) (Dobin et al., Bioinformatics 29:15-21, 2013). ChIP-Seq peaks were called using findPeaks within HOMER using parameters for histone (-style histone) or transcription factor (-style factor) (homer.ucsd.edu/homer/index.html). Peaks were called when enriched >two-fold over input and >four-fold over local tag counts, with FDR 0.001. For histone ChIP, peaks within a 1000 bp range were stitched together to form regions. Differential ChIP peaks were found by merging peaks from control and experiment groups and called using getDiffExpression.pl with fold change ≥1.5 or ≤−1.5, Poisson p value<0.0001.

For series [5], the system named is Treg cells. Kind of series: In vitro Treg suppression assay. The source says:
Treg cells were transduced by retrovirus expressing sgRNA targeting gene of interest and cultured in X-VIVO® complete media supplemented with IL-2 (500 U/ml). Four days after transduction, transduced cells were […] a fluorescence-activated cell sorter (FACS). CD45.1+ naive CD4 T cells (CD4^+CD25^−CD44^loCD62^hi) were labeled with CellTrace™ Violet (Thermo Fisher Scientific #C34571) in different ratio in the presence of irradiated T cell depleted spleen cells as antigen-presenting cells (APC). Three days later, Treg suppression function was measured by the percentage of non-dividing cells within the CD45.1^+ effector T cell population. For dBRD9 treatment experiment, dBRD9 was first dissolved in DMSO (10 mM stock) and added into Treg:Teff:APC mixture at 2.5 μM. For Foxp3 overexpression rescue experiment, Treg cells were first transduced with sgNT or sgBrd9 at 24 hour post-activation, and then transduced with MIGR empty vector or MIGR-Foxp3 at 48 hour post-activation. Double transduced Treg cells were FACS sorted on day 4 based on NGFR+ and GFP+ markers and then mixed with CellTrace™ labeled effector T cells in the presence of APC. Treg suppression readout was measured after three days of co-culture.

Series [6] relates to Foxp3 target genes. The series is described as follows: RNA-seq and gene set enrichment analysis in Treg cells. To be noted: sgRNA transduced Treg cells vs sgNT.
Source text: as §1
RNA from 1-3×10^6 cells was extracted and purified with TRIzol™ reagent (Thermo Fisher) according to manufacturer's instructions. RNA-seq libraries were prepared using Illumina® TruSeq® Stranded mRNA kit following manufacturer's instructions with 5 μg of input RNA.
Single-end 50 bp reads were aligned to the mouse genome mm10 using STAR alignment tool (V2.5) (Dobin et al., Bioinformatics 29:15-21, 2013). RNA expression was quantified as raw integer counts using analyzeRepeats.pl in HOMER (Heinz et al., Mol Cell 38:576-589, 2010) using the following parameters: -strand both -count exons -condenseGenes -noadj. To identify differentially expressed genes, getDiffExpression.pl in HOMER was used, which uses the DESeq2R package to calculate the biological variation within replicates. Cut-offs were set at log 2 FC=0.585 and FDR at 0.05 (Benjamin-Hochberg). Principal Component Analysis (PCA) was performed with the mean of transcript per million (TPM) values using Cluster 3.0 with the following filter parameters: at least one observation with absolute value equal or greater than two and gene vector of four. TPM values were log transformed then centered on the mean.
GSEA software (Mootha et al., Nat Genet 34:267-273, 2003; Subramanian et al., PNAS 102:15545-15550, 2005) was used to perform the analyses with the following parameters: number of permutations=1000; enrichment statistic=weighted; and metric for ranking of genes=difference of classes (Input RNA-seq data was log-transformed). For GSEA analysis, input RNA-seq data contained the normalized log-transformed reads of the 1,325 differentially expressed genes (DEGs) in sgFoxp3/sgNT Treg cells. The compiled gene list included GSEA Gene Ontology, Immunological Signature, Curated Gene, and the up and down DEGs in sgBrd9/sgNT Treg cells.
For gene expression analysis in FIG. 42F, Foxp3 ChIP-seq tags were quantified at the union of sites bound by Foxp3 in sgNT and sgBrd9 using the annotatePeaks.pl command in HOMER with size-given and each site was annotated to a gene by mapping to the nearest TSS. Sites were ranked from least to largest Foxp3 ChIP-seq Log2FC in sgBrd9 vs sgNT and divided into quartiles. Gene expression for the genes in the top and bottom quartiles (Brd9-dependent and -independent, respectively) was then plotted using RNA-seq data from Treg cells transduced with sgBrd9, sgSmarcd1, or sgPbrm1 compared to sgNT. […]

The subject of series [7] is H3K27ac. Kind of series: H3K27ac ChIP-seq in Treg cells. As to conditions: sgRNA transduced Treg cells. On the procedure:
as §2, with “The next day, the antibody bound DNA was incubated with Protein A+G Dynabeads™ (Invitrogen) in ChIP buffer (50 mM HEPES-KOH pH 7.5, 300 mM NaCl, 1 mM EDTA, 1% Triton X-100, 0.1% DOC, 0.1% SDS), washed and treated with Proteinase K and RNase A. Cross-linking was reversed by incubation at 55° C. for two and a half hours. Purified ChIP DNA was used for library generation (NuGen Ovation® Ultralow Library System V2) according to manufacturer's instructions for subsequent sequencing.” left out
Single-end 50 bp or paired-end 42 bp reads were aligned to mouse genome mm10 using STAR alignment tool (V2.5) (Dobin et al., Bioinformatics 29:15-21, 2013). […]

“Also recorded” adds a separate entry of the source.

For the molecule `COc1cc(-c2cn(C)c(=O)c3cnccc23)cc(OC)c1CN(C)CC(=O)NCCOCCOCCNc1cccc2c1C(=O)N(C1CCC(=O)NC1=O)C2=O` (stereo not shown) [dBRD9], the “Foxp3 expression (MFI)” value in series [1] (Treg cells, 0.16-10 μM dBRD9 for 4 days vs DMSO) is listed as “significantly decreased Foxp3 expression in Treg cells in a concentration-dependent manner; also recorded: reduces Foxp3 expression”. Moreover, the cell viability result in series [2] is reported as “without affecting cell viability”. In addition, the cell proliferation result in series [3] is “without affecting cell viability or proliferation; also recorded: without affecting cell viability and proliferation”. Further, in series [4] (Treg cells, 2.5 μM dBRD9 for 4 days vs DMSO), the “Foxp3 binding to chromatin” value is on record as “diminished Foxp3 binding to chromatin at a subset of Foxp3 target sites”. In addition, in series [5] (dBRD9 2.5 μM, in vitro), the T effector responses entry is recorded as “without impairing T effector responses”. In addition, in series [5] (dBRD9 added to Treg:Teff:APC mixture at 2.5 μM), the Treg suppressor function entry was “significantly and specifically compromised Treg suppressor function; also recorded: reduces Treg suppressor activity”.
As for “sgFoxp3: sgRNA targeting Foxp3, TCTACCCACAGGGATCAATG (SEQ ID NO: 1) (expressed or natural sequence)”, the “Foxp3 binding at CNS2/CNS0” value in series [4] (sgRNA transduced Treg cells) is recorded as “dramatic reduction in Foxp3 binding at CNS2/CNS0”. Also, in series [4] (sgRNA transduced Treg cells, genome-wide), the “Foxp3 binding sites at which Foxp3 binding was lost” value is recorded as “over 85%”. Besides, in series [6] (RNA-seq), the “genes with increased expression” value was determined as 532 genes and the “genes with reduced expression” value worked out at 793 genes. Besides, the “H3K27ac at Brd9-dependent Foxp3 sites” value in series [7] is on record as “reduction in H3K27ac”.
“sgPbrm1: sgRNA targeting Pbrm1, AAAACACTTGCATAACGATG (SEQ ID NO: 8) (expressed or natural sequence)”: the “Foxp3 binding at CNS2/CNS0” value in series [4] (sgRNA transduced Treg cells) is listed as “subtle increase in Foxp3 binding at CNS2/CNS0”. Moreover, in series [4] (sgRNA transduced Treg cells, FC1.5, Poisson p<0.0001), the “Foxp3 binding at a subset of Foxp3 sites (Brd9-dependent sites)” value is on record as “did not change”.
On to “sgSmarcd1: sgRNA targeting Smarcd1, CAATCCGGCTAAGTCGGACG (SEQ ID NO: 15) (expressed or natural sequence)”, for which the “gene expression of Brd9-dependent vs Brd9-independent Foxp3 target genes” value in series [6] is given as “significantly more affected”.
In the case of “sgUsp22: sgRNA targeting Usp22, GCCATCGACCTGATGTACGG (SEQ ID NO: 18) (expressed or natural sequence)”, in series [1] (sgRNA transduced Cas9 Treg cells vs sgNT), the “Foxp3 expression (MFI)” value is “reduces Foxp3 expression”. In addition, the Treg suppressor activity result in series [5] (sgRNA transduced Treg cells vs sgNT) is listed as “compromised Treg suppressor activity”.

For the origin of these results see patent US20240150755A1, “MODULATING REGULATORY T CELL FUNCTION IN AUTOIMMUNE DISEASE AND CANCER” (Salk Institute for Biological Studies, priority 2021, published 2024).
